Measured values published in paper PMC7730238, “Temporin-Like Peptides Show Antimicrobial and Anti-Biofilm Activities against Streptococcus mutans with Reduced Hemolysis” (Molecules, 2020).
No end group written: not given here.

What was measured:
[1] = test system: Pseudomonas aeruginosa (ATCC 15442); assay type: cell-based; conditions: for MIC: ATCC 15442; for MBC: ATCC 15442, 24 h
Excerpt: (§1) The strains were used in the experiments, including Gram-positive bacteria Staphylococcus aureus (ATCC 25923), Bacillus subtilis (ATCC 6633), Streptococcus mutans (ATCC 25175), Methicillin-resistant Staphylococcus aureus (ATCC 43300), Methicillin-resistant Staphylococcus aureus 1–3 (clinically isolated, number 1–3), Gram-negative bacteria Escherichia coli (ATCC 25922), E. coli (D 31), Pseudomonas aeruginosa (ATCC 15442), P. aeruginosa PAO1 (wild type), and the fungus Candida albicans (ATCC 10231). S. mutans was cultured in Brain Heart Infusion Broth (BHI, Beijing Land Bridge, China) under anaerobic condition; C. albicans was grown in Sabouraud Dextrose Broth (SDB, HuanKai Microbial, Guangzhou, China); and the other bacterial strains were grown in Tryptic Soy Broth (TSB, HuanKai Microbial, Guangzhou, China). All bacteria and fungi were cultivated to the logarithmic phase at 37 °C before experiments were performed.
(§2) The antimicrobial activities of the peptides were measured by the two-fold dilution method. Each strain was inoculated in the medium and cultivated to the logarithmic phase. A series of diluted peptides (concentrations of 3.1–100 μM, 50 μL) were prepared in a 96-well plate (Corning, New York, NY, USA), and the same volume of the bacterial suspension (the final concentration of 1 × 10^6 CFU/mL) was added. After incubation at 37 °C for 18–24 h, the absorbance at 600 nm was measured by using a microplate reader (Multiskan Spectrum, BioTek, Winuski, VT, USA). […] All tests were performed in triplicate independent experiments.
(§3) From the MIC measuring plates, 50 μL of bacteria suspension in the presence of peptides when the concentrations were equal and up to MICs was spread on the BHI agar medium, and incubated at 37 °C for 24 h. The peptide concentration with no bacterial growth was defined as MBC [33].

[2] = test system: Escherichia coli (ATCC 25922); assay type: cell-based; conditions: for MIC: ATCC 25922; for MBC: ATCC 25922, 24 h
Excerpt: as §1, §2, §3

[3] = test system: Bacillus subtilis (ATCC 6633); assay type: cell-based; conditions: for MIC: ATCC 6633; for MBC: ATCC 6633, 24 h
Excerpt: as §1, §2, §3

[4] = test system: Streptococcus mutans (ATCC 25175); assay type: cell-based; conditions: for MIC: ATCC 25175; for MBC: ATCC 25175, 24 h
Excerpt: as §1, §2, §3

[5] = test system: Candida albicans (ATCC 10231); assay type: cell-based; conditions: for MIC: ATCC 10231; for MBC: ATCC 10231, 24 h
Excerpt: as §1, §2, §3

[6] = test system: Staphylococcus aureus (ATCC 25923); assay type: cell-based; conditions: for MIC: ATCC 25923; for MBC: ATCC 25923, 24 h
Excerpt: as §1, §2, §3

[7] = test system: S. mutans mature biofilms; assay: Mature biofilm eradication, crystal violet; assay type: cell-based, Streptococcus mutans; conditions: 24 h mature S. mutans biofilms, 24 h treatment, CV staining, absorbance 590 nm
Experimental: To evaluate the ability of the peptides to eradicate the mature biofilms of S. mutans, the bacteria (the final concentration of 1 × 10^6 CFU/mL) were seeded in a flat bottom 96-well plate for 24 h to obtain the mature biofilms. The planktonic bacteria were washed away, and the peptides with the concentrations of 3.1–50 μM were added. After treatment for 24 h, CV was used for staining and quantification as described above. The biofilms untreated with the peptides served as the negative control. MBEC50 was defined as the lowest peptide concentration that removed 50% of the mature biofilm.

[8] = test system: P. aeruginosa PAO1 (wild type); assay type: cell-based, Pseudomonas aeruginosa; conditions: for MIC: PAO1; for MBC: PAO1, 24 h
Excerpt: as §1, §2, §3

[9] = test system: methicillin-resistant S. aureus (ATCC 43300); assay type: cell-based, Staphylococcus aureus; conditions: for MIC: ATCC 43300; for MBC: ATCC 43300, 24 h
Excerpt: as §1, §2, §3

[10] = test system: MRSA-3, methicillin-resistant S. aureus (clinically isolated, No.3); assay type: cell-based, Staphylococcus aureus; conditions: for MIC: -3, methicillin-resistant (clinically isolated, No.3); for MBC: -3, methicillin-resistant (clinically isolated, No.3, 24 h)
Excerpt: as §1, §2, §3

[11] = test system: MRSA-2, methicillin-resistant S. aureus (clinically isolated, No.2); assay type: cell-based, Staphylococcus aureus; conditions: for MIC: -2, methicillin-resistant (clinically isolated, No.2); for MBC: -2, methicillin-resistant (clinically isolated, No.2, 24 h)
Excerpt: as §1, §2, §3

[12] = test system: MRSA-1, methicillin-resistant S. aureus (clinically isolated, No.1); assay type: cell-based, Staphylococcus aureus; conditions: for MIC: -1, methicillin-resistant (clinically isolated, No.1); for MBC: -1, methicillin-resistant (clinically isolated, No.1, 24 h)
Excerpt: as §1, §2, §3

[13] = test system: E. coli (D31), anti-streptomycin strain; assay type: cell-based, Escherichia coli; conditions: 37 °C; for MIC: TSB, 1 × 10^6 CFU/mL, 18–24 h, absorbance 600 nm, triplicate, first value of cell; for MBC: plated from MIC wells on agar, 24 h, no growth, second value of cell
Excerpt: as §1, §2, §3

S. mutans biofilms = assay type: cell-based, Streptococcus mutans; conditions: S. mutans in BHI with 1% sucrose, 24 h anaerobic, CV staining, absorbance 590 nm
Experimental: CV was used to detect the effects of the peptides on the formation of biofilm and the eradication of mature biofilm. 100 μL of S. mutans in the logarithmic phase was diluted in BHI (containing 1% sucrose) to the concentration of 2 × 10^6 CFU/mL. The suspensions were added to the equal volume of the peptides (the final concentrations of 0.8–12.5 μM). After incubation at 37 °C under anaerobic conditions for 24 h, the supernatant was discarded. The plate was irrigated with PBS carefully to wash away the planktonic bacteria. After fixing with anhydrous methanol for 15 min, 0.5% CV was added to each well for staining the biofilms. The excess CV was washed away by PBS (pH 7.2), and the bound CV was dissolved with anhydrous methanol. A microplate reader (Multiskan Spectrum, BioTek, Winuski, VT, USA) was used to measure the absorbance value of 590 nm. MBIC50 was defined as the lowest peptide concentration that inhibited 50% of biofilm formation.

[14] = test system: Human red blood cells (hRBCs); assay type: cell-based
Experimental: The hemolytic toxicity of the peptides was determined as described. Human red blood cells (hRBCs) were washed with phosphate-buffered saline (PBS, pH 7.2) and centrifuged at 1000× g for 10 min at 4 °C until the supernatant was clear. 4% hRBCs and an equal volume of the peptides with different concentrations were incubated at 37 °C for 1 h. After incubation, the supernatant was collected by centrifugation, and 150 μL was transferred to a new 96-well plate (Corning, New York, NY, USA). The absorbance at 450 nm was measured. The 0.1% Triton X-100 was used as the positive control, and PBS was used as the negative control. The minimum hemolysis concentration (MHC) was defined as the lowest concentration of peptide that causes 10% hemolysis, and HL50 was the lowest concentration that causes 50% hemolysis. CSI was defined as the ratio of HL50 to MIC [31].

| Sequence | MIC [1] [µM] | MBC [1] [µM] | MIC [2] [µM] | MBC [2] [µM] | MIC [3] [µM] | MBC [3] [µM] | MIC [4] [µM] | MBC [4] [µM] | MIC [5] [µM] | MBC [5] [µM] | MIC [6] [µM] | MBC [6] [µM] | MBEC50 (lowest peptide concentration that removed 50% of the mature biofilm) [7] [µM] | MIC [8] [µM] | MBC [8] [µM] | MIC [9] [µM] | MBC [9] [µM] | MIC [10] [µM] | MBC [10] [µM] | MIC [11] [µM] | further results |
| --- | --- | --- | --- | --- | --- | --- | --- | --- | --- | --- | --- | --- | --- | --- | --- | --- | --- | --- | --- | --- | --- |
| FLQRIIRALGRLF [GHaR7R] | > 50 | > 50 | 3.1 | 12.5 | > 50 | > 50 | 6.2 | 12.5 | 25 | 25 | 3.1 | 3.1 | 25 | > 50 | > 50 | 3.1 | 6.2 | 6.2 | 25 | 6.2 | MBC [11]: 50 µM; MIC [12]: 6.2 µM; MBC [12]: 25 µM; MIC [13]: 12.5 µM; MBC [13]: 50 µM; MBIC50 (lowest peptide concentration that inhibited 50% of biofilm formation) (S. mutans biofilms): 6.2 µM |
| FLQRIRGALGRLF [GHaR6R] | > 50 | > 50 | 12.5 | 12.5 | 25 | 50 | 12.5 | 12.5 | 50 | 50 | 3.1 | 12.5 | 25 | 3.1 | 25 | 6.2 | 12.5 | 6.2 | 25 | 12.5 | HL50 relative to that of GHaR [14]: 1–5 times higher; MBC [11]: 25 µM; MIC [12]: 12.5 µM; MBC [12]: 25 µM; MIC [13]: 25 µM; MBC [13]: 50 µM; time to complete eradication: < 15 min; MBIC50 (lowest peptide concentration that inhibited 50% of biofilm formation) (S. mutans biofilms): 6.2 µM |
| FLQRIIGRLGRLF [GHaR8R] | 50 | > 50 | 3.1 | 3.1 | 12.5 | 12.5 | 6.2 | 6.2 | 12.5 | 12.5 | 1.6 to 3.1 | 3.1 | 12.5 | 6.2 | 12.5 | 3.1 | 3.1 | 6.2 | 12.5 | 3.1 | HL50 relative to that of GHaR [14]: 1–5 times higher; MBC [11]: 12.5 µM; MIC [12]: 6.2 µM; MBC [12]: 6.2 µM; MIC [13]: 12.5 µM; MBC [13]: 25 µM; time to complete eradication: < 15 min; MBIC50 (lowest peptide concentration that inhibited 50% of biofilm formation) (S. mutans biofilms): 1.6 µM |
